Test results published in patent publication US11590116B2 (THERAVANCE BIOPHARMA R&D IP, LLC, priority 2019, dated 2023).
pKi: −log10 of the molar value. Read-outs that look alike come from different tables or passages of the source.

Columns and labels:
[1] = target: T1, recombinant human ALK5 (TGF-βR1) protein (Homo sapiens, UniProt P36897); experiment: Biochemical ALK5 (TGF-βR1) assay to measure pKi (LANCE Ultra ULight kinase assay); details: apparent pKi from pIC50 by Cheng-Prusoff; for Ki: read-out: ALK5 pKi (converted)
T1 construct: purchased Life Technologies PR9075A
T1 sequence (P36897 34-503): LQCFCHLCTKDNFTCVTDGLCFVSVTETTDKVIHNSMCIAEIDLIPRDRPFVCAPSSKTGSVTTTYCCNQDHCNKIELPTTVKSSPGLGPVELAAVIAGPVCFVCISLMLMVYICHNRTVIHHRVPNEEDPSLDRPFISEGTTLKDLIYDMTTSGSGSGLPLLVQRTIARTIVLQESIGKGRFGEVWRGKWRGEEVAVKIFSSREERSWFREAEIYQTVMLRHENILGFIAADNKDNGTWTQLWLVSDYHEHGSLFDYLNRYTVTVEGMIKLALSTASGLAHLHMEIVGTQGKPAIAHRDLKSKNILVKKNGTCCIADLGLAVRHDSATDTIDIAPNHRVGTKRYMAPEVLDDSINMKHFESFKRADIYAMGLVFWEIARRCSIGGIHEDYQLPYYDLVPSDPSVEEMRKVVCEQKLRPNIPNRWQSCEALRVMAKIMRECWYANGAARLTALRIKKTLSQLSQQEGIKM
Outline: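 Dose range 10 μM–25 pM; enzyme + compound 60 min RT; ATP added (5× stock 125 μM, 2 mM DTT); 60 min 37 °C; stop with EDTA + Eu anti-phospho-Topo IIα Thr1342 Ab; TR-FRET ex 320/340, em 665 nm. 4-param pIC50 → pKi (Cheng-Prusoff).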

[2] = system: TGF-β-stimulated SMAD3 phosphorylation in BEAS-2B cells; experiment: Cellular ALK5 potency assay, inhibition of TGF-β stimulated pSMAD3 formation in BEAS-2B cells; assay type: cell-based; details: Homo sapiens, read-out: BEAS2B pIC50 (converted)
Outline: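 BEAS-2B human lung epithelial cells pre-treated 1 h at 37° C with compound in HBSS/25 mM HEPES/1% BSA, then stimulated 30 min with 10 ng/mL TGF-β (final). Lysates assayed for pSMAD3 by AlphaLISA; pIC50 from dose-dependent change versus stimulated untreated cells.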

[3] = inhibition of TGF-β stimulated pSMAD3 formation, BEAS-2B cells

| Structure (SMILES) | Ki [1] | pKi ([1]; ALK5 pKi) | IC50 ([2]; BEAS-2B) | IC50 [2, 3] |
| --- | --- | --- | --- | --- |
| Cc1cccc(-c2n[nH]cc2-c2ccc3ncc(C4=C[C@H]5CC[C@@H](C4)N5)cc3n2)n1 (racemic) [Compound 161, 2-[3-(6-methyl-2-pyridyl)-1H-pyrazol-4-yl]-7-[rac-(1R,5S)-8-azabicyclo[3.2.1]oct-2-en-3-yl]-1,5-naphthyridine] | – | 9.50 to 10.40 | 25.1 to 158 nM | – |
| Cc1cccc(-c2[nH]cnc2-c2ccc3ncc(-c4csc(C(=O)O[C@H]5CCNC5)n4)cc3c2)n1 [Compound 1024, [(3S)-pyrrolidin-3-yl] 4-[6-[5-(6-methyl-2-pyridyl)-1H-imidazol-4-yl]-3-quinolyl]thiazole-2-carboxylate] | 0.0398 to 0.316 nM | – | – | 25.1 to 158 nM |
| Cc1cccc(-c2[nH]cnc2-c2ccc3ncc(NC(=O)C4CN5CCN4CC5)cc3c2)n1 (centres unmarked) [Compound 406, N-[6-[5-(6-methyl-2-pyridyl)-1H-imidazol-4-yl]-3-quinolyl]-1,4-diazabicyclo[2.2.2]octane-2-carboxamide] | 0.0398 to 0.316 nM | – | – | 200 to 1260 nM |
| Cc1cccc(-c2[nH]cnc2-c2ccc3nccc(C(=O)O[C@H]4C[C@H](N)C4)c3c2)n1 [Compound 1107, (3-aminocyclobutyl) 6-[5-(6-methyl-2-pyridyl)-1H-imidazol-4-yl]quinoline-4-carboxylate] | 0.398 to 3.16 nM | – | – | 25.1 to 158 nM |
| Cc1nc(-c2nc3ccccn3c2-c2ccc3ncc(-c4cn[nH]c4)cc3n2)ccc1F [Compound 169, 2-[2-(5-fluoro-6-methyl-2-pyridyl)imidazo[1,2-a]pyridin-3-yl]-7-(1H-pyrazol-4-yl)-1,5-naphthyridine] | 0.0398 to 0.316 nM | – | – | < 20 nM |
| Cc1nc(-c2nc3ccccn3c2-c2ccc3ncc(N4CCC(N5CCN(C)CC5)CC4)cc3n2)ccc1F [Compound 47, 2-[2-(5-fluoro-6-methyl-2-pyridyl)imidazo[1,2-a]pyridin-3-yl]-7-[4-(4-methylpiperazin-1-yl)-1-piperidyl]-1,5-naphthyridine] | 0.0398 to 0.316 nM | – | – | 200 to 1260 nM |
| Cc1cccc(-c2[nH]cnc2-c2ccc3ncc(N4CCNC(CC(=O)OC(C)C)C4)cc3c2)n1 (centres unmarked) [Compound 24, isopropyl 2-[4-[6-[5-(6-methyl-2-pyridyl)-1H-imidazol-4-yl]-3-quinolyl]piperazin-2-yl]acetate] | 0.0398 to 0.316 nM | – | – | 25.1 to 158 nM |
| Cc1cccc(-c2[nH]cnc2-c2ccc3ncc(Nc4ccc(N5CCN(Cc6ccccc6)CC5)cn4)cc3c2)n1 [Compound 510, N-[5-(4-benzylpiperazin-1-yl)-2-pyridyl]-6-[5-(6-methyl-2-pyridyl)-1H-imidazol-4-yl]quinolin-3-amine] | 0.398 to 3.16 nM | – | – | 25.1 to 158 nM |
| Cc1cccc(-c2[nH]cnc2-c2ccc3ncc(NCCC4CCCNC4)cc3c2)n1 (centres unmarked) [Compound 222, 6-[5-(6-methyl-2-pyridyl)-1H-imidazol-4-yl]-N-[2-(3-piperidyl)ethyl]quinolin-3-amine] | 0.0398 to 0.316 nM | – | – | 25.1 to 158 nM |
| Cc1cccc(-c2[nH]cnc2-c2ccc3ncc(-c4csc(C(=O)O[C@H]5CC[C@](C)(N)CC5)c4)cc3c2)n1 [Compound 1200, (4-amino-4-methyl-cyclohexyl) 4-[6-[5-(6-methyl-2-pyridyl)-1H-imidazol-4-yl]-3-quinolyl]thiophene-2-carboxylate] | 0.0398 to 0.316 nM | – | – | 25.1 to 158 nM |
| Cc1cccc(-c2[nH]cnc2-c2ccc3ncc(NCCN(C)C4CNC4)cc3c2)n1 [Compound 593, N′-(azetidin-3-yl)-N′-methyl-N-[6-[5-(6-methyl-2-pyridyl)-1H-imidazol-4-yl]-3-quinolyl]ethane-1,2-diamine] | 0.0398 to 0.316 nM | – | – | 200 to 1260 nM |
| CNCCn1cc(-c2cnc3ccc(-c4c(-c5cccc(C)n5)nnn4Cc4ccccc4)nc3c2)cn1 [Compound 439, 2-[4-[6-[3-benzyl-5-(6-methyl-2-pyridyl)triazol-4-yl]-1,5-naphthyridin-3-yl]pyrazol-1-yl]-N-methyl-ethanamine] | 0.0398 to 0.316 nM | – | – | 25.1 to 158 nM |
| Cc1cccc(-c2[nH]cnc2-c2ccc3ncc(NCCNC4CNC4)cc3c2)n1 [Compound 189, N′-(azetidin-3-yl)-N-[6-[5-(6-methyl-2-pyridyl)-1H-imidazol-4-yl]-3-quinolyl]ethane-1,2-diamine] | 0.0398 to 0.316 nM | – | – | 200 to 1260 nM |
| CNCCn1cc(-c2cnc3ccc(-c4c(-c5cccc(C)n5)nc5ccccn45)nc3c2)cn1 [Compound 527, N-methyl-2-(4-(6-(2-(6-methylpyridin-2-yl)imidazo[1,2-a]pyridin-3-yl)-1,5-naphthyridin-3-yl)-1H-pyrazol-1-yl)ethan-1-amine] | 0.0398 to 0.316 nM | – | – | 25.1 to 158 nM |
| Cc1cccc(-c2[nH]ncc2-c2ccc3nccc(C(=O)OC[C@H]4CC[C@@H](N)CC4)c3c2)n1 [Compound 1130, (4-aminocyclohexyl)methyl 6-[5-(6-methyl-2-pyridyl)-1H-pyrazol-4-yl]quinoline-4-carboxylate] | 0.398 to 3.16 nM | – | – | 25.1 to 158 nM |

Second part, led by results:

| Ki [1] | Structure (SMILES) | pKi ([1]; ALK5 pKi) | IC50 ([2]; BEAS-2B) | IC50 [2, 3] |
| --- | --- | --- | --- | --- |
| < 0.0316 nM | Cc1cccc(-c2n[nH]cc2-c2ccc3ncc(-c4cnn(CCN)c4)cc3c2)n1 [Compound 435, 2-[4-[6-[3-(6-methyl-2-pyridyl)-1H-pyrazol-4-yl]-3-quinolyl]pyrazol-1-yl]ethanamine] | – | – | 25.1 to 158 nM |
| 0.0398 to 0.316 nM | Cc1cccc(-c2n[nH]cc2-c2ccc3nccc(CNCCN4CCOCC4)c3n2)n1 [Compound 816, N-[[6-[3-(6-methyl-2-pyridyl)-1H-pyrazol-4-yl]-1,5-naphthyridin-4-yl]methyl]-2-morpholino-ethanamine] | – | – | 25.1 to 158 nM |
| < 0.0316 nM | Cc1nc(-c2n[nH]cc2-c2ccc3ncc(-c4[nH]nc5c4CCN5)cc3n2)ccc1F [Compound 515, 2-[3-(5-fluoro-6-methyl-2-pyridyl)-1H-pyrazol-4-yl]-7-(2,4,5,6-tetrahydropyrrolo[2,3-c]pyrazol-3-yl)-1,5-naphthyridine] | – | – | 25.1 to 158 nM |
| 0.0398 to 0.316 nM | Cc1cccc(-c2n[nH]cc2-c2ccc3ncc(N4CCC[C@H](N(C)C)C4)cc3n2)n1 [Compound 492, (3S)-N,N-dimethyl-1-[6-[3-(6-methyl-2-pyridyl)-1H-pyrazol-4-yl]-1,5-naphthyridin-3-yl]piperidin-3-amine] | – | – | 25.1 to 158 nM |
| < 0.0316 nM | Cc1cccc(-c2n[nH]cc2-c2ccc3ncc(N4CC(C)(N(C)C)C4)cc3n2)n1 [Compound 586, N,N,3-trimethyl-1-[6-[3-(6-methyl-2-pyridyl)-1H-pyrazol-4-yl]-1,5-naphthyridin-3-yl]azetidin-3-amine] | – | – | 25.1 to 158 nM |
| 0.0398 to 0.316 nM | CNC1CCCN(c2cnc3ccc(-c4c[nH]nc4-c4cccc(C)n4)nc3c2)C1 (centres unmarked) [Compound 606, N-methyl-1-[6-[3-(6-methyl-2-pyridyl)-1H-pyrazol-4-yl]-1,5-naphthyridin-3-yl]piperidin-3-amine] | – | – | 25.1 to 158 nM |
| 0.0398 to 0.316 nM | CCOC(=O)c1ccnc2ccc(-c3c[nH]nc3-c3cccc(C)n3)nc12 [Compound 800, ethyl 6-[3-(6-methyl-2-pyridyl)-1H-pyrazol-4-yl]-1,5-naphthyridine-4-carboxylate] | – | – | 25.1 to 158 nM |
| 0.0398 to 0.316 nM | Cc1cccc(-c2n[nH]cc2-c2ccc3ncc(-c4c[nH]cn4)cc3n2)n1 [Compound 157, 7-(1H-imidazol-4-yl)-2-[3-(6-methyl-2-pyridyl)-1H-pyrazol-4-yl]-1,5-naphthyridine] | – | – | 25.1 to 158 nM |
| < 0.0316 nM | Cc1nc(-c2n[nH]cc2-c2ccc3ncc(N4CCC(N5CCCC5)CC4)cc3n2)ccc1F [Compound 114, 2-[3-(5-fluoro-6-methyl-2-pyridyl)-1H-pyrazol-4-yl]-7-(4-pyrrolidin-1-yl-1-piperidyl)-1,5-naphthyridine] | – | – | 25.1 to 158 nM |
| 0.398 to 3.16 nM | Cc1cccc(-c2n[nH]cc2-c2ccc3ncc(C#N)cc3n2)n1 [Compound 236, 6-[3-(6-methyl-2-pyridyl)-1H-pyrazol-4-yl]-1,5-naphthyridine-3-carbonitrile] | – | – | 25.1 to 158 nM |
| 0.0398 to 0.316 nM | Cc1cccc(-c2n[nH]cc2-c2ccc3ncc(N4CC5CNC5C4)cc3n2)n1 (centres unmarked) [Compound 219, 7-(3,6-diazabicyclo[3.2.0]heptan-3-yl)-2-[3-(6-methyl-2-pyridyl)-1H-pyrazol-4-yl]-1,5-naphthyridine] | – | – | 25.1 to 158 nM |
| 0.0398 to 0.316 nM | Cc1nc(-c2n[nH]cc2-c2ccc3ncc(NCCN4CCN(C(C)C)CC4)cc3n2)ccc1F [Compound 43, 6-[3-(5-fluoro-6-methyl-2-pyridyl)-1H-pyrazol-4-yl]-N-[2-(4-isopropylpiperazin-1-yl)ethyl]-1,5-naphthyridin-3-amine] | – | – | 25.1 to 158 nM |
| 0.398 to 3.16 nM | Cc1cccc(-c2n[nH]cc2-c2ccc3nccc(C(=O)OCCCN4CCOCC4)c3n2)n1 [Compound 826, 3-morpholinopropyl 6-[3-(6-methyl-2-pyridyl)-1H-pyrazol-4-yl]-1,5-naphthyridine-4-carboxylate] | – | – | 25.1 to 158 nM |
